Experimental data: patent publication US8933230B2, “Phosphorus-containing group-substituted quinoline, its preparation process, medical composition containing the compounds and application” (priority 2011, dated 2015)

Assays:
Experiment in all cases: KinomeScan kinase panel
Type in all cases: binding
[1] = target: T1, AAK1 (Homo sapiens, UniProt Q2M2I8)
T1 construct: purchased DiscoveRx Corporation (KinomeScan)
Summary of the method: (§1)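 Values come from one concentration only (1000 nM) within a broad 442-kinase KinomeScan screen.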

[2] = target: T2, ABL1(F317I)-nonphosphorylated (Homo sapiens, UniProt P00519, F317I)
T2 construct: purchased DiscoveRx Corporation (KinomeScan)
Summary of the method: as §1

[3] = target: T3, ABL1-nonphosphorylated (Homo sapiens, UniProt P00519)
T3 construct: purchased DiscoveRx Corporation (KinomeScan)
Summary of the method: as §1

[4] = target: T4, ACVR1 (Homo sapiens, UniProt Q04771)
T4 construct: purchased DiscoveRx Corporation (KinomeScan)
Summary of the method: as §1

[5] = target: T5, AKT3 (Homo sapiens, UniProt Q9Y243)
T5 construct: purchased DiscoveRx Corporation (KinomeScan)
Summary of the method: as §1

[6] = target: T6, ALK (Homo sapiens, UniProt Q9UM73)
T6 construct: purchased DiscoveRx Corporation (KinomeScan)
Summary of the method: as §1

[7] = target: T7, BLK (Homo sapiens, UniProt P51451)
T7 construct: purchased DiscoveRx Corporation (KinomeScan)
Summary of the method: as §1

[8] = target: T8, CAMK2B (Homo sapiens, UniProt Q13554)
T8 construct: purchased DiscoveRx Corporation (KinomeScan)
Summary of the method: as §1

[9] = target: T9, CDK4-cyclinD3 (Homo sapiens, UniProt P11802)
T9 construct: purchased DiscoveRx Corporation (KinomeScan)
Summary of the method: as §1

[10] = target: T10, CDKL1 (Homo sapiens, UniProt Q00532)
T10 construct: purchased DiscoveRx Corporation (KinomeScan)
Summary of the method: as §1

[11] = target: T11, CDKL2 (Homo sapiens, UniProt Q92772)
T11 construct: purchased DiscoveRx Corporation (KinomeScan)
Summary of the method: as §1

[12] = target: T12, CLK2 (Homo sapiens, UniProt P49760)
T12 construct: purchased DiscoveRx Corporation (KinomeScan)
Summary of the method: as §1

[13] = target: T13, CSNK1G2 (Homo sapiens, UniProt P78368)
T13 construct: purchased DiscoveRx Corporation (KinomeScan)
Summary of the method: as §1

[14] = target: T14, ERK3 (Homo sapiens, UniProt Q16659)
T14 construct: purchased DiscoveRx Corporation (KinomeScan)
Summary of the method: as §1

[15] = target: T15, FES (Homo sapiens, UniProt P07332)
T15 construct: purchased DiscoveRx Corporation (KinomeScan)
Summary of the method: as §1

[16] = target: T16, GAK (Homo sapiens, UniProt O14976)
T16 construct: purchased DiscoveRx Corporation (KinomeScan)
Summary of the method: as §1

[17] = target: T17, GRK1 (Homo sapiens, UniProt Q15835)
T17 construct: purchased DiscoveRx Corporation (KinomeScan)
Summary of the method: as §1

[18] = target: T18, ICK (Homo sapiens, UniProt Q9UPZ9)
T18 construct: purchased DiscoveRx Corporation (KinomeScan)
Summary of the method: as §1

[19] = target: T19, LCK (Homo sapiens, UniProt P06239)
T19 construct: purchased DiscoveRx Corporation (KinomeScan)
Summary of the method: as §1

[20] = target: T20, MAP3K4 (Homo sapiens, UniProt Q9Y6R4)
T20 construct: purchased DiscoveRx Corporation (KinomeScan)
Summary of the method: as §1

[21] = target: T21, MAP4K5 (Homo sapiens, UniProt Q9Y4K4)
T21 construct: purchased DiscoveRx Corporation (KinomeScan)
Summary of the method: as §1

[22] = target: T22, MELK (Homo sapiens, UniProt Q14680)
T22 construct: purchased DiscoveRx Corporation (KinomeScan)
Summary of the method: as §1

[23] = target: T23, MKNK1 (Homo sapiens, UniProt Q9BUB5)
T23 construct: purchased DiscoveRx Corporation (KinomeScan)
Summary of the method: as §1

[24] = target: T24, NEK6 (Homo sapiens, UniProt Q9HC98)
T24 construct: purchased DiscoveRx Corporation (KinomeScan panel)
Summary of the method: as §1

[25] = target: T25, NEK9 (Homo sapiens, UniProt Q8TD19)
T25 construct: purchased DiscoveRx Corporation (KinomeScan panel)
Summary of the method: as §1

[26] = target: T26, NIM1 (Homo sapiens, UniProt Q8IY84)
T26 construct: purchased DiscoveRx Corporation (KinomeScan panel)
Summary of the method: as §1

[27] = target: T27, P38-gamma (Homo sapiens, UniProt P53778)
T27 construct: purchased DiscoveRx Corporation (KinomeScan panel)
Summary of the method: as §1

[28] = target: T28, PCTK1 (Homo sapiens, UniProt Q00536)
T28 construct: purchased DiscoveRx Corporation (KinomeScan panel)
Summary of the method: as §1

[29] = target: T29, PCTK2 (Homo sapiens, UniProt Q00537)
T29 construct: purchased DiscoveRx Corporation (KinomeScan panel)
Summary of the method: as §1

[30] = target: T30, PFTAIRE2 (Homo sapiens, UniProt Q96Q40)
T30 construct: purchased DiscoveRx Corporation (KinomeScan)
Summary of the method: as §1

[31] = target: T31, PIK3CA(M1043I) (Homo sapiens, UniProt P42336, M1043I)
T31 construct: purchased DiscoveRx Corporation (KinomeScan)
Summary of the method: as §1

[32] = target: T32, PLK1 (Homo sapiens, UniProt P53350)
T32 construct: purchased DiscoveRx Corporation (KinomeScan)
Summary of the method: as §1

[33] = target: T33, PLK4 (Homo sapiens, UniProt O00444)
T33 construct: purchased DiscoveRx Corporation (KinomeScan)
Summary of the method: as §1

[34] = target: T34, PRKR (Homo sapiens, UniProt P19525)
T34 construct: purchased DiscoveRx Corporation (KinomeScan)
Summary of the method: as §1

[35] = target: T35, RIOK2 (Homo sapiens, UniProt Q9BVS4)
T35 construct: purchased DiscoveRx Corporation
Summary of the method: as §1

[36] = target: T36, SRC (Homo sapiens, UniProt P12931)
T36 construct: purchased DiscoveRx Corporation (KinomeScan)
Summary of the method: as §1

[37] = target: T37, SYK (Homo sapiens, UniProt P43405)
T37 construct: purchased DiscoveRx Corporation (KinomeScan)
Summary of the method: as §1

T21 sequence (Q9Y4K4 whole entry): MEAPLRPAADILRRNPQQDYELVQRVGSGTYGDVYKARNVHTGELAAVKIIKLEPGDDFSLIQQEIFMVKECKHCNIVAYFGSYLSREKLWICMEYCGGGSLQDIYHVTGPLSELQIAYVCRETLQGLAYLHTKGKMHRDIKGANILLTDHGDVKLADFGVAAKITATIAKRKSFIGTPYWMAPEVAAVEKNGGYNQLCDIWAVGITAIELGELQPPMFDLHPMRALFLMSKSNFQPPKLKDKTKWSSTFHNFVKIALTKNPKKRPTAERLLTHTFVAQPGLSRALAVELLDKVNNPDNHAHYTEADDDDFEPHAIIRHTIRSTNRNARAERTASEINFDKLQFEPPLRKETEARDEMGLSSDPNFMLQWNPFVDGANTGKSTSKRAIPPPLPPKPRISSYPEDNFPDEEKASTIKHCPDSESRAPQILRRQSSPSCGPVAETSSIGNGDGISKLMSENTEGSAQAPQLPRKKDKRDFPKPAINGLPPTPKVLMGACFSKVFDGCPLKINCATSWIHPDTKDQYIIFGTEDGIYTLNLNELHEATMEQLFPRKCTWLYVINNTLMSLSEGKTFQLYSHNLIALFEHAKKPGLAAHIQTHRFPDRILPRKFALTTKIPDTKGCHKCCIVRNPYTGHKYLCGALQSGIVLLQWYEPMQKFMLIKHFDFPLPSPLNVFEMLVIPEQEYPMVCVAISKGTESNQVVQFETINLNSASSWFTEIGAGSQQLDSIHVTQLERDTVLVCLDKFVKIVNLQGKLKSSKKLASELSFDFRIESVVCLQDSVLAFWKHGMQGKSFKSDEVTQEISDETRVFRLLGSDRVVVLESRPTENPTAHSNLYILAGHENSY
T22 sequence (Q14680 whole entry): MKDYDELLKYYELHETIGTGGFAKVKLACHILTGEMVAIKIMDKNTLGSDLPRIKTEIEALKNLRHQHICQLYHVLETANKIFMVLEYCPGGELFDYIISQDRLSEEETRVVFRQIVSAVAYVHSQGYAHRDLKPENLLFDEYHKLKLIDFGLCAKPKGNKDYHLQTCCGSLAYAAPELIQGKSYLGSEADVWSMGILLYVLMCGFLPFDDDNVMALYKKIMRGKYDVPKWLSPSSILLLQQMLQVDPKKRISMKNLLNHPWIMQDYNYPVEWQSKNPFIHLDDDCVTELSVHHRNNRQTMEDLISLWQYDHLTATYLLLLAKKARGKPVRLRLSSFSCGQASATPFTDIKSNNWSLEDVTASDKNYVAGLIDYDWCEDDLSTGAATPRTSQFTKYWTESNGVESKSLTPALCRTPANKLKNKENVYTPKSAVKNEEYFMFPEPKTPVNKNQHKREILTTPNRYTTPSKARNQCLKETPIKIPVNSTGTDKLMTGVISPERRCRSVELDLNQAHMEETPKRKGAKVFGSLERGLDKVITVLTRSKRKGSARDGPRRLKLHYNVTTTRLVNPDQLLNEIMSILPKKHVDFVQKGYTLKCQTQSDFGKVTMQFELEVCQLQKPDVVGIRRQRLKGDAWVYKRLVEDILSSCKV
T24 sequence (Q9HC98 whole entry): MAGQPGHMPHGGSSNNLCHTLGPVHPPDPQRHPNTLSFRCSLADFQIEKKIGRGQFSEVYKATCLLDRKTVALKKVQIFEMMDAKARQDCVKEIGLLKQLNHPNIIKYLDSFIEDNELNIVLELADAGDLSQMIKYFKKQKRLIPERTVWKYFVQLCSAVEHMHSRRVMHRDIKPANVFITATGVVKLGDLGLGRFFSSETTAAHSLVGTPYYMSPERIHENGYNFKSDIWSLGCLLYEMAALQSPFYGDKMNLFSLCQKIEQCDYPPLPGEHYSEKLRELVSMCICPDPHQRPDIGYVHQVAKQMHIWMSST
T31 sequence (P42336 whole entry M1043I): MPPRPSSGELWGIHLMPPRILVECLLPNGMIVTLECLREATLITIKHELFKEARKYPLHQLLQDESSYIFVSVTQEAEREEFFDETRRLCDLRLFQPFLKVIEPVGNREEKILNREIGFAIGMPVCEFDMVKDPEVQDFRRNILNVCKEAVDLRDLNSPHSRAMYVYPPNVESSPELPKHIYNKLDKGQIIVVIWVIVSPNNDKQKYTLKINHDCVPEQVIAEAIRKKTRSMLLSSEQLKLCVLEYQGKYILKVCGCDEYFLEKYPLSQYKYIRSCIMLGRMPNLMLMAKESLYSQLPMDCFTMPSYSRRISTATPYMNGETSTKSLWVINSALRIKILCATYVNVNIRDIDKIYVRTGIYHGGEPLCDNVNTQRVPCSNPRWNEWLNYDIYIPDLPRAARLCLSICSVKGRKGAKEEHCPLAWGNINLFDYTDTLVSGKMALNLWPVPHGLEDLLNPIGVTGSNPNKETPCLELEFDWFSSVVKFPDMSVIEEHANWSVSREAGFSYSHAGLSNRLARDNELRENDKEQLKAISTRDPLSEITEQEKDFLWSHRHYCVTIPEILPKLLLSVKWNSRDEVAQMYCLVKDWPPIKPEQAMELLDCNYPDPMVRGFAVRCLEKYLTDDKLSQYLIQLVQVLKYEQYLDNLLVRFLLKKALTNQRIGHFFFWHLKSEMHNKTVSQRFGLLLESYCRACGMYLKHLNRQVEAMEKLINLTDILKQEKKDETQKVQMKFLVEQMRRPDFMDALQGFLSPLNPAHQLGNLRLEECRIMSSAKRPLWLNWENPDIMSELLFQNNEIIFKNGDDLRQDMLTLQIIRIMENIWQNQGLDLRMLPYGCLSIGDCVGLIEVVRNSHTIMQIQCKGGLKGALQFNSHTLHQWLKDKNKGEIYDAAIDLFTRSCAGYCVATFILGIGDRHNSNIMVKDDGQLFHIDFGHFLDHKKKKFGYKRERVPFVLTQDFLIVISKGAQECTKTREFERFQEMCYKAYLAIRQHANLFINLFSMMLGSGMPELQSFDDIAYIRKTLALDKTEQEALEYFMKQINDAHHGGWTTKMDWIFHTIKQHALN
T33 sequence (O00444 whole entry): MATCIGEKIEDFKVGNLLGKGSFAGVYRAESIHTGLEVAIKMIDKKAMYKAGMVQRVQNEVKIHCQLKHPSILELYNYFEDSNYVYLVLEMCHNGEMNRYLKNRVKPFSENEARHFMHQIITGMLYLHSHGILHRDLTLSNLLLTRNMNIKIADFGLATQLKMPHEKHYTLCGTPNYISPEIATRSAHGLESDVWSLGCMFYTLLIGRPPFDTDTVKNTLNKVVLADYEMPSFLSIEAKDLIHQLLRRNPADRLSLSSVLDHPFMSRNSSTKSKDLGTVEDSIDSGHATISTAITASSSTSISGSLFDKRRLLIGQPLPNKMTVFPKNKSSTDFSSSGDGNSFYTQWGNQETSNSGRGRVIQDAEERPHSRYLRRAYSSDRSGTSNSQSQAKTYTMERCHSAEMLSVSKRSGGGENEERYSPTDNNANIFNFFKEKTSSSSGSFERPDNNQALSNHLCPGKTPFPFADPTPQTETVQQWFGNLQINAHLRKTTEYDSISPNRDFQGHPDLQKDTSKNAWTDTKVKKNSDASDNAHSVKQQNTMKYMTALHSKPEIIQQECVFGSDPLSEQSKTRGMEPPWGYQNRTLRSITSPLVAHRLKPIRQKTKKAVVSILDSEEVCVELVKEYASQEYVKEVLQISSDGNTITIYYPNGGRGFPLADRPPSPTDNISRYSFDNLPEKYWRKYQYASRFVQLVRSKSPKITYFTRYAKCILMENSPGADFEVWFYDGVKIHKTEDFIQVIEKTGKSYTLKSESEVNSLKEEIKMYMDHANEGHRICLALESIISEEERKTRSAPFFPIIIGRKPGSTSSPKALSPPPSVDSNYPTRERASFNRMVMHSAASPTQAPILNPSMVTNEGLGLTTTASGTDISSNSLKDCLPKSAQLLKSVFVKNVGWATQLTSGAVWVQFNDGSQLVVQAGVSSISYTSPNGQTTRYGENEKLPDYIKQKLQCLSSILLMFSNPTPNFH
T2 sequence (P00519 whole entry F317I): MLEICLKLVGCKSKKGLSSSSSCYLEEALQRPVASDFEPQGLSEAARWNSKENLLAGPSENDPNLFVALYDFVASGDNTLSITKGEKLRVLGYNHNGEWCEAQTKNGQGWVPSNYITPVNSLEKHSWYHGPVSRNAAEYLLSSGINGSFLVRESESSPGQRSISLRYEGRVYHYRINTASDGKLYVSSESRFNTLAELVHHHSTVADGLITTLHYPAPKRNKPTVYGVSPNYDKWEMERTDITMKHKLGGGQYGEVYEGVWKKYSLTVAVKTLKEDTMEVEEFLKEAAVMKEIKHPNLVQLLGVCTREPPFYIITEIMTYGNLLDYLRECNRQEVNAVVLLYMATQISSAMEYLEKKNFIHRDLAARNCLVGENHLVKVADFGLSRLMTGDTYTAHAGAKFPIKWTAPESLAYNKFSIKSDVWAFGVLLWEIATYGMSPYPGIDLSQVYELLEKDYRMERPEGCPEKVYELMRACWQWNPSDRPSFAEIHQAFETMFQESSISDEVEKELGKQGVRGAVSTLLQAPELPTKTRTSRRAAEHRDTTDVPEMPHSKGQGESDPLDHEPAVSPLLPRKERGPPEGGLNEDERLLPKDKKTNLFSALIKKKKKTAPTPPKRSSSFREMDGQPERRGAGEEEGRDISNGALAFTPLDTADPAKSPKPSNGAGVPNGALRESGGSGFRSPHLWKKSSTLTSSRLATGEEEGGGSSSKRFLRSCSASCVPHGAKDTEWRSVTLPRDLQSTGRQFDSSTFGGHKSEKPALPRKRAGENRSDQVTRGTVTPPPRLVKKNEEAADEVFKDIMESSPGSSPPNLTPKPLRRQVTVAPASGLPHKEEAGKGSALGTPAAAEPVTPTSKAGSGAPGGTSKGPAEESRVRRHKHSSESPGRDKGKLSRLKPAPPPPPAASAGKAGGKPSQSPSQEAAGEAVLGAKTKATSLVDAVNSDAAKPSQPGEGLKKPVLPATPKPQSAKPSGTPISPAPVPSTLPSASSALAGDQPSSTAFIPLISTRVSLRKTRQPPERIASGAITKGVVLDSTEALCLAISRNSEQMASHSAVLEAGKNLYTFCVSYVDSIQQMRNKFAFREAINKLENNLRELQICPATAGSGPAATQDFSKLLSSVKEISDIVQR
T3 sequence (P00519 whole entry): as the sequence (P00519 whole entry F317I) above, with I317F counted along it

CCOP(=O)(CN1CCC(COc2cc3nccc(Oc4ccc(NC(=O)C5(C(=O)Nc6ccc(F)cc6)CC5)cc4F)c3cc2OC)CC1)OCC [Example 10, N1-[4-[[7-[[1-(diethoxyphosphorylmethyl)-4-piperidinyl]methoxyl]-6-methoxyl-4-quinolyl]oxyl]-3-fluorophenyl]-N1′-(4-fluorophenyl)cyclopropane-1,1-dicarboxamide]
% Ctrl@1000 nM [1]: 91 % Ctrl
% Ctrl@1000 nM [2]: 42 % Ctrl
% Ctrl@1000 nM [3]: 1.8 % Ctrl
% Ctrl@1000 nM [4]: 100 % Ctrl
% Ctrl@1000 nM [5]: 100 % Ctrl
% Ctrl@1000 nM [6]: 15 % Ctrl
% Ctrl@1000 nM [7]: 0.5 % Ctrl
% Ctrl@1000 nM [8]: 100 % Ctrl
% Ctrl@1000 nM [9]: 100 % Ctrl
% Ctrl@1000 nM [10]: 100 % Ctrl
% Ctrl@1000 nM [11]: 100 % Ctrl
% Ctrl@1000 nM [12]: 78 % Ctrl
% Ctrl@1000 nM [13]: 100 % Ctrl
% Ctrl@1000 nM [14]: 100 % Ctrl
% Ctrl@1000 nM [15]: 44 % Ctrl
% Ctrl@1000 nM [16]: 100 % Ctrl
% Ctrl@1000 nM [17]: 100 % Ctrl
% Ctrl@1000 nM [18]: 95 % Ctrl
% Ctrl@1000 nM [19]: 2.2 % Ctrl
% Ctrl@1000 nM [20]: 100 % Ctrl
% Ctrl@1000 nM [21]: 2.8 % Ctrl
% Ctrl@1000 nM [22]: 29 % Ctrl
% Ctrl@1000 nM [23]: 45 % Ctrl
% Ctrl@1000 nM [24]: 100 % Ctrl
% Ctrl@1000 nM [25]: 66 % Ctrl
% Ctrl@1000 nM [26]: 100 % Ctrl
% Ctrl@1000 nM [27]: 100 % Ctrl
% Ctrl@1000 nM [28]: 100 % Ctrl
% Ctrl@1000 nM [29]: 100 % Ctrl
% Ctrl@1000 nM [30]: 87 % Ctrl
% Ctrl@1000 nM [31]: 100 % Ctrl
% Ctrl@1000 nM [32]: 100 % Ctrl
% Ctrl@1000 nM [33]: 7.4 % Ctrl
% Ctrl@1000 nM [34]: 100 % Ctrl
% Ctrl@1000 nM [35]: 100 % Ctrl
% Ctrl@1000 nM [36]: 3.2 % Ctrl
% Ctrl@1000 nM [37]: 58 % Ctrl
